Assay results published in PubChem BioAssay AID540271 (Broad Institute, 2011).
Calls of active or inactive are those of the source. The rule behind the calls is not given here.

System: S. cerevisiae expressing PfHSP40, growth rescue, plate reader
Assay: S cerevisiae expressing PfHSP40, growth rescue, cherry pick dose confirmatory, plate reader (AID 540271);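 note: yeast growth read after three days of incubation at 30 °C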

Row | SMILES | AC50
1 | FC(F)(F)c1nc(SCc2ccc(Cl)cc2Cl)n[nH]1 | 6.21 µM
2 | Cc1ccc2c(C)c3ccc4ccccc4c3c[n+]2c1 | 6 µM
3 | COC(=O)C1=NN(C(=O)c2cccc(Br)c2)C(O)(c2ccc(Cl)cc2)C1 (centres undefined) | 5.82 µM
4 | NC(=O)N=Nc1c2[nH]c3ccccc3nc-2c2ccccc12 | 3.89 µM
5 | CSC(=S)N/N=C/c1ccccc1 | 5.83 µM
6 | O=[N+]([O-])c1ccc(S(=O)(=O)c2ccccc2)nc1 | 2.23 µM
7 | Cc1c(C(=O)O)cccc1-c1ccc(/C=N/Nc2ccc(Br)cc2)o1 | 6.31 µM
8 | Cc1ccc(S(=O)(=O)N(C(=O)c2ccncc2)c2ccc(OC(=O)c3ccncc3)cc2)cc1 | 1.83 µM
9 | CC1CCN(c2ccc3c(c2)S(=O)(=O)c2ccccc2C3=O)CC1 | 9.89 µM
10 | O=C(Sc1cccc2cccnc12)c1ccccc1Br | 6.63 µM
11 | Cc1cccc(Oc2nc(-c3ccccn3)nc3ccccc23)c1 | 6.77 µM
12 | Cc1onc(-c2c(Cl)cccc2Cl)c1C(=O)N/N=C(\N)COc1ccc(Cl)cc1 | 3.02 µM
13 | CN(C)c1ccc(C=c2c3cc(O)ccc3n3c2cc(-c2ccccc2)[n+]3C)cc1 | 2.88 µM
14 | O=C(Nc1ccc(Cl)cc1C(=O)Nc1ccc(Br)cn1)c1ccco1 | 3.64 µM
15 | C=CS(=O)(=O)c1sc(Cl)c(N2CCOCC2)c1[N+](=O)[O-] | 1.91 µM
16 | COc1ccc(N(C(=O)c2ccncc2)S(=O)(=O)c2ccc(F)cc2)cc1 | 5.25 µM
17 | COc1nc(NC23CC4CC(CC(C4)C2)C3)nc(OC)n1 | 10.9 µM
18 | CCc1cc(SC#N)cc(C)c1NC(=O)CCl | 4.4 µM
19 | CC1CCc2sc(-c3n[nH]c(=S)o3)cc2C1 (centres undefined) | 5.69 µM
20 | CCCCn1c(=O)c(C(=O)NCc2ccncc2)c(O)c2ccccc21 | 4.99 µM
21 | Cc1cc(-c2ccccc2)n(-c2cc(N/N=C/c3ccccc3O)ncn2)n1 | 5.77 µM
22 | Cn1nc(C(F)(F)F)c(C#N)c1N1CCN(c2ccc(F)cc2)CC1 | 7.37 µM
23 | CN(C)S(=O)(=O)c1cccc(NC(=S)NNC(=O)c2cc3ccccc3cc2O)c1 | 2.86 µM
24 | CC(C)(C)c1ccc(C(=O)NC(=S)NNC(=O)c2cccs2)cc1 | 1.89 µM

Row | SMILES | AC50
25 | O=C(O)c1ccc(N/N=C/C=C/c2ccccc2)cc1 | 3.72 µM
26 | Cc1nc2ccc(C(=O)NCc3ccc4c(c3)OCO4)cc2s1 | 4.51 µM
27 | O=Cc1ccc(O)c2ncccc12 | 0.366 µM
28 | CCc1cc(-c2[nH]ncc2-c2ccc([N+](=O)[O-])cc2)c(O)cc1OC | 6.19 µM
29 | O=C(c1ccccc1)c1coc2c1C(=O)c1ccccc1C2=O | 11.7 µM
30 | CN(C)c1nc(-c2ccccn2)nnc1-c1ccccc1 | 5.25 µM
31 | O=C(CSc1ccc(-c2ccccn2)nn1)NCc1ccc(F)cc1 | 4.86 µM
32 | CC(C)(C)c1ccc(Oc2ccc(N)cc2)cc1 | 7.32 µM
33 | O/N=C/c1ccccc1OCc1ccc(Cl)cc1 | 5.07 µM
34 | CC(C)C(=O)NC(c1ccco1)c1ccc2cccnc2c1O (centres undefined) | 4.51 µM
35 | Cc1ccc(C)c(NS(=O)(=O)c2cc(C(=O)N3CCc4ccccc4C3)ccc2Cl)c1 | 6.77 µM
36 | CC(C)c1cc(-c2cc(C(=O)NCc3ccccc3)on2)nc(NCC2CC2)n1 | 5.24 µM
37 | CCc1ccc(NC(=O)CSc2ccc(-c3ccccn3)nn2)cc1 | 2.44 µM
38 | O=C(N/N=C/c1sc(N2CCOCC2)nc1-c1ccccc1)c1ccccc1O | 6.17 µM
39 | CCCCC(=O)NC(c1ccc(N(C)C)cc1)c1ccc2cccnc2c1O (centres undefined) | 1.65 µM
40 | Oc1c(Br)cc(Br)cc1CNc1ccc(F)cc1 | 6.21 µM
41 | O=C(CSc1nnc(-c2ccccc2O)n1Cc1ccccc1)NNC(=O)c1ccccc1O | 3.94 µM
42 | CC12CC3(C)CC(C)(C1)CC(NC(=O)N1CCCC1)(C2)C3 | 1.7 µM
43 | COc1cc(/C=C2\SC(=S)N(NS(=O)(=O)c3ccc(C)cc3)C2=O)ccc1O | 7.05 µM
44 | COc1cccc(C(C)=C2SC(=S)NC2=O)c1 | 9.37 µM
45 | c1ccc(-c2ccc(SCc3cccnc3)nn2)nc1 | > 12 µM (inactive)
46 | Cc1ccccc1C(=O)NNC(=S)NC(=O)c1ccc(Cl)cc1Cl | 2.36 µM
47 | C[C@@]12C(=O)Nc3ccc(F)cc3C(=O)N1[C@H]1c3ccccc3OC[C@@H]1[C@@H]2c1ccccc1 | 8.46 µM
48 | CC1CCN(c2nc(-c3ccncc3)nc3ccccc23)CC1 | 7.47 µM

Row | SMILES | AC50
49 | Cc1nn(CCC#N)c(N)c1C1(O)C(=O)Nc2c(Cl)cc(Cl)cc21 (centres undefined) | 7.66 µM
50 | Cc1ccc(-c2nn(C(C)(C)C)c3ncnc(N)c23)cc1 | 1.28 µM
51 | C=CCN(CC=C)C(=S)NC(=O)c1ccc(OC)c(Br)c1 | 7.96 µM
52 | O=[N+]([O-])c1cc(Cl)cc(/C=N/NC(=S)Nc2ccc(S(=O)(=O)N3CCOCC3)cc2)c1O | 3.13 µM
53 | Cc1ccc2oc(-c3ccccc3)c(C(=O)O)c(=O)c2c1 | 5.94 µM
54 | O=Cc1cc(N=Nc2ccccc2Cl)ccc1O | 0.768 µM
55 | O=c1c(-c2cccc3ccccc23)[n+]([O-])c2ccccc2n1O | 10.4 µM
56 | C(=C1c2ccccc2-c2ccccc21)c1ccncc1 | 6.18 µM
57 | O=S(=O)(CCSc1ccccn1)c1nc2ccccc2s1 | 7.49 µM
58 | C=CCn1c(-c2cc(-c3ccc(C)cc3)nc3ccccc23)n[nH]c1=S | 5.81 µM
59 | NNC(=O)c1ccc2nc(-c3ccc(Br)cc3)cn2c1 | 6.47 µM
60 | Cc1ccc(NC(=O)CN(C)C(=O)c2cccnc2Nc2cccc(C(F)(F)F)c2)cc1 | 4.74 µM
61 | Oc1ccc(Cl)cc1CNc1cccc2cccnc12 | 6.73 µM
62 | Cc1ccc(NC2=C(NC(=O)c3ccccc3)C(=O)c3ccccc3C2=O)cc1Cl | 7.65 µM
63 | Cc1ccc(S(=O)(=O)Nc2ccc(O)c3cccnc23)cc1 | > 12 µM (inactive)
64 | O=C(Nc1ccc(C2=NCCN2)cc1)c1ccc(C(=O)Nc2ccc(C3=NCCN3)cc2)c(Cl)c1 | 4.17 µM
65 | CCOC(=O)c1ccc(N2C(=O)CC(N3CCC(O)(c4ccc(Cl)cc4)CC3)C2=O)cc1 (centres undefined) | 6.57 µM
66 | O=C1c2ccccc2NC(c2ccc(-c3cccc([N+](=O)[O-])c3)o2)N1O (centres undefined) | 4.69 µM
67 | O=c1c(/C=N/O)coc2ccc(Cl)cc12 | > 12 µM (inactive)
68 | Cc1ccc(NC2(c3nnnn3-c3c(C)cccc3C)CCCCC2)cc1 | 6.94 µM
69 | CCCCCCCCCCOC(=O)Cn1c(COc2ccc(OC)cc2)[n+](C)c2ccccc21 | 6.37 µM
70 | CCCCCCN1N=C(C)C(C(=O)c2ccc(Cl)cc2)C1=O (centres undefined) | 3.23 µM
71 | O=c1[nH]c(=O)n(C2OC(CO)C(O)C2O)cc1F (centres undefined) | 5.04 µM
72 | O=S(=O)(Nc1nc2ccccc2nc1N1CCN(c2ccccn2)CC1)c1ccc(Cl)cc1 | 1.79 µM

Row | SMILES | AC50
73 | O=C(C=Cc1cccc(O)c1)c1ccccc1O | 2.1 µM
74 | Cc1ccsc1/C=C/c1ccc2cccc(O)c2n1 | 3.48 µM
75 | O=C1OCC(CO)(CO)N=C1NNc1ccc(Cl)c(Cl)c1 | 1.87 µM
76 | Cc1ccc(SCCNC(=S)Nc2ccc(C)c(C)c2)cc1 | 6.21 µM
77 | C=CCc1ccc(O)c(-c2ccc(O)c(CC=C)c2)c1 | 4.8 µM
78 | CCc1cc(C(N)=O)c(NC(=O)c2ccc(OC)cc2)s1 | 1.77 µM
79 | COc1ccc(C(=O)c2c(C(F)(F)F)oc3c2C(=O)c2ccccc2C3=O)cc1OC | 6.24 µM
80 | CN(c1ccccc1)c1nc(N2CCCC2)nc(-n2ccnc2)n1 | 1.04 µM
81 | Cc1c(C2(O)CCCCC2)[nH]c2ccc(C(F)(F)F)cc12 | 7.22 µM
82 | O=C(c1ccc(-c2ccccc2)c(F)c1)C1CCCN(C(=O)c2cncs2)C1 (centres undefined) | 5.68 µM
83 | O=C(CSc1ccc(-c2ccccn2)nn1)NC1CCCCC1 | 4.21 µM
84 | [O-][n+]1cccc2c(Br)cc(Br)c(O)c21 | 2.69 µM
85 | Clc1ccccc1C(c1ccccc1)(c1ccccc1)n1ccnc1 | 0.387 µM
86 | Cc1ccc2c(c1C)-c1c(ccc(C)c1C)C(=O)C2=O | 1.48 µM
87 | CCC(Oc1ccc(Br)cc1Cl)C(=O)Nc1nnc(C2CC2)s1 (centres undefined) | 4.51 µM
88 | CCCCCOc1ccc(CSc2n[nH]c(C)n2)cc1 | 3.81 µM
89 | COC(=O)C1=C(C)NC(C)=C(C(=O)OCC(C)C)C1c1ccccc1[N+](=O)[O-] (centres undefined) | 5.87 µM
90 | O=c1c(CO)cc(CO)cc(CO)c1O | 6.03 µM
91 | Cc1cccc(C)c1N1C(=O)C2ON(c3ccccc3)C(c3ccncc3)C2C1=O (centres undefined) | 6.34 µM
92 | Cc1ccc(C(=O)Sc2cccccc2=O)cc1 | 0.295 µM
93 | CC1=NN(C(N)=S)C(=O)C1N=Nc1cccc(Cl)c1C (centres undefined) | 3.3 µM
94 | O=C(COC(=O)c1ccc([N+](=O)[O-])o1)NCc1ccc(F)cc1 | 6.66 µM
95 | CC(C)(C)C(=O)C(Oc1ccc(Cl)cc1)n1cncn1 (centres undefined) | 4.7 µM
96 | CCCCc1ccc(-n2c(Cc3cccs3)n[nH]c2=S)cc1 | 6.45 µM

Row | SMILES | AC50
97 | Cc1ccc(NC(=S)c2nc3ccccc3[nH]2)c(C)c1 | 6.15 µM
98 | CCCCCCCCCCOC(=O)Cn1c(COc2ccccc2)[n+](C)c2ccccc21 | > 12 µM (inactive)
99 | Cc1csc(NC(=S)Nc2cccc(Cl)c2)n1 | 11.2 µM
100 | O=C(N/N=C/c1ccc[nH]1)c1sc2ccccc2c1Cl | 6.23 µM
101 | c1ccc(CSc2ccc(-c3ccccn3)nn2)nc1 | 4.49 µM
102 | Cc1nc2ccc(NC(=O)COc3cccc(F)c3)cc2s1 | 10.2 µM
103 | COc1cccc(C(=O)Nc2sc(C(C)C)cc2C(N)=O)c1OC | 5.46 µM
104 | N#C/C(=C\Nc1ccccc1O)c1nc2ccccc2o1 | 9.96 µM
105 | Cc1cccc(N2CCN(C(=O)C3COc4ccccc4O3)CC2)c1C (centres undefined) | 6.72 µM
106 | Oc1c(C(Nc2cccc(C(F)(F)F)c2)c2ccncc2)ccc2cccnc12 (centres undefined) | 1.92 µM
107 | CCCC(=O)NC(c1ccccc1OC)c1ccc2cccnc2c1O (centres undefined) | 1.7 µM
108 | COc1cc2c(c(OC)c1OC)-c1ccc(O)c(=O)cc1[C@@H](NC(C)=O)CC2 | 1.87 µM
109 | CSc1nccc(NC(=O)c2ccc(C(C)(C)C)cc2)n1 | 5.08 µM
110 | Cc1ccc(CNC(=O)CSc2ccc(-c3ccccn3)nn2)cc1 | 4.21 µM
111 | O=C(Nc1nc(-c2ccccn2)cs1)c1ccc(Br)s1 | 0.584 µM
112 | Cc1ccc(NS(=O)(=O)c2ccc(N3CCN(c4ccc(O)cc4)CC3)c([N+](=O)[O-])c2)c(C)c1 | 7.43 µM
113 | CC(C)(C)n1nc(-c2ccc(Cl)cc2)c2c(N)ncnc21 | 1.56 µM
114 | S=C1SCN(Cc2cccnc2)CN1Cc1cccnc1 | 4.06 µM
115 | C=C1C(=O)C23CCC4C(C)(C(=O)OC)CCCC4(C)C2CCC1(O)C3 (centres undefined) | 11.6 µM
116 | Cc1ccccc1NC(=O)CSc1ccc(-c2ccccn2)nn1 | 4.42 µM
117 | Cc1ccc(Cl)cc1NC1=C/C(=N\S(=O)(=O)c2cccs2)c2ccccc2C1=O | 6.42 µM
118 | O=C(Nc1nnc(-c2cccs2)o1)c1cccc(Oc2ccccc2)c1 | 2.57 µM
119 | CNC1=C(N(C(C)=O)c2ccc(Br)cc2)C(=O)c2ccccc2C1=O | 6.77 µM
